This series can be described thus: physchem. The settings on record: 20 °C.

The term solubility denotes how much of the substance goes into solution per volume.

Bounds are passed on as bounds.

`CCN1OCC(NC(=O)c2ccc(C3=NOC(c4cc(Cl)c(F)c(Cl)c4)(C(F)(F)F)C3)cc2C)C1=O` (stereo not shown) [Isocycloseram] showed a solubility of less than 5 µg/mL.

Values taken from patent US20240057603A1, “ISOCYCLOSERAM FORMULATION” (SYNGENTA CROP PROTECTION AG, priority 2020, published 2024).
